Reference: US20230355605A1, “DRUG FOR ENHANCING FIBRINOLYTIC SYSTEM, AND USE THEREFOR” (priority 2020, published 2023)

Key:
[1] = tested on: mouse model of bleomycin-induced pulmonary fibrosis; test: Mouse model of bleomycin-induced pulmonary fibrosis; format: in vivo
Description: The improvement effect of the present compound on pulmonary fibrosis (remodeling after lung damage) was evaluated using a mouse model of bleomycin-induced pulmonary fibrosis. […] Because of similarity of histopathological changes to pulmonary fibrosis in humans, this mouse model is widely used for the evaluation of the drug efficacy.
To a fibrosis mouse model (fibrosis model group) given a single dose of bleomycin (1.2 mg/mL), the present compound (0.75 mg/kg/day) was orally administered for 21 days (present compound administration group, n = 9), and biochemical analysis of the lungs and measurement of clinical conditions of the lungs were performed on day 22. For comparison, instead of the present compound, the solvent used to dissolve the present compound was administered to a fibrosis model group in the same manner (vehicle group, n = 10), and biochemical analysis and measurement of clinical conditions of the lungs were performed. As a positive control group, a dexamethasone administration group (0.25 mg/kg administration, n = 9) was used. The biochemical analysis was performed using lung hydroxyproline values as an index. The clinical conditions of the lungs were evaluated by performing Masson’s trichrome staining and calculating Ashcroft scores according to a report of Ashcroft et al. (Ashcroft T et al., J Clin Pathol, 1988; 41:467). The clinical conditions were confirmed by comparing a normal mouse group (normal group, n = 10) with the vehicle group (n = 10), and the improvement effect of the present compound on pulmonary fibrosis was evaluated by comparing the vehicle group (n = 10) with the present compound administration group (n = 9). Differences between the mean values of the groups were tested by the Bonferroni selected pairs test using Prism 4 (GraphPad Software).
Table 1 and FIG. 3(A) and FIG. 3(B) show the results of comparisons of the lung hydroxyproline values and the Ashcroft scores in the groups. The mean values of the groups are expressed as mean±SD, and examination was performed at a 5% significance level.

CML patients = conditions: according to the NCCN guidelines; cited from earlier work
[2] = tested on: cynomolgus monkey model of saphenous arterial thrombus; test: Cynomolgus monkey model of saphenous arterial thrombus (PIT model); format: in vivo; conditions: oral administration to monkeys
Description: The thrombus formation inhibitory effect of the present compound was evaluated using a cynomolgus monkey model of saphenous arterial thrombus (PIT model) .
Before the procedure, the present compound suspended in a 0.5% CMC-Na aqueous solution was orally administered to test groups of cynomolgus monkeys at dosages of 0.1, 0.3, 1, and 3 mg/kg. […] A light irradiation probe was placed on a saphenous artery of each cynomolgus monkey to cause thrombus formation by applying green light of 540 nm for 20 minutes at the time of intravenously administering rose bengal (20 mg/kg). A decrease in blood flow due to this thrombus formation was measured with a pulse Doppler blood flowmeter, and the thrombus formation inhibitory effect of the present compound was evaluated by measuring the occlusion time on the first day and the cumulative occlusion time.

rats = test: 4-week repeated oral dose toxicity study in rats; format: in vivo; conditions: rats; study details of the similar compound not given
[3] = tested on: COVID-19 patients with moderate to severe lung damage; conditions: 13 COVID-19 patients, inhaled; cited from earlier work
[4] = day 22, present compound 0.75 mg/kg/day oral 21 days, dexamethasone 0.25 mg/kg, mean±SD

Molecule: C[C@@H]1C[C@H]2[C@@H]3CCC4=CC(=O)C=C[C@]4(C)[C@@]3(F)[C@@H](O)C[C@]2(C)[C@@]1(O)C(=O)CO [Dexamethazone, dexamethasone, reference compound]
- Ashcroft score compared with vehicle group ([1]; 5% significance level): significantly lower
- lung hydroxyproline value compared with vehicle group ([1]; 5% significance level): no significant difference
- Ashcroft score [1, 4]: 2.3±0.1
- Lung hydroxyproline value [1, 4]: 71.0±6.7 µg/left lung

Molecule: Cc1ccc(NC(=O)c2ccc(CN3CCN(C)CC3)cc2)cc1Nc1nccc(-c2cccnc2)n1 [imatinib]
- patients who could maintain DMR for more than 2 years after 3 years of treatment (CML patients): about 5 % of all CML cases

Molecule: O=C(Nc1ccc(Cl)cc1C(=O)O)c1cccc(-c2ccccc2)c1 [similar compound, 2-([biphenyl-3-ylcarbonyl]amino)-5-chlorobenzoic acid, reference compound]
- minimum effective dosage [2]: 0.3 mg/kg
- no-observed-adverse-effect level (rats): 20 mg/kg/day

B1: plasminogen: inhaled plasminogen given to COVID-19 patients in the clinical study by Wu et al. (protein, UniProt P00747 20-810, looked up)
Plasminogen: EPLDDYVNTQGASLFSVTKKQLGAGSIEECAAKCEEDEEFTCRAFQYHSKEQQCVIMAENRKSSIIIRMRDVVLFEKKVYLSECKTGNGKNYRGTMSKTKNGITCQKWSSTSPHRPRFSPATHPSEGLEENYCRNPDNDPQGPWCYTTDPEKRYDYCDILECEEECMHCSGENYDGKISKTMSGLECQAWDSQSPHAHGYIPSKFPNKNLKKNYCRNPDRELRPWCFTTDPNKRWELCDIPRCTTPPPSSGPTYQCLKGTGENYRGNVAVTVSGHTCQHWSAQTPHTHNRTPENFPCKNLDENYCRNPDGKRAPWCHTTNSQVRWEYCKIPSCDSSPVSTEQLAPTAPPELTPVVQDCYHGDGQSYRGTSSTTTTGKKCQSWSSMTPHRHQKTPENYPNAGLTMNYCRNPDADKGPWCFTTDPSVRWEYCNLKKCSGTEASVVAPPPVVLLPDVETPSEEDCMFGNGKGYRGKRATTVTGTPCQDWAAQEPHRHSIFTPETNPRAGLEKNYCRNPDGDVGGPWCYTTNPRKLYDYCDVPQCAAPSFDCGKPQVEPKKCPGRVVGGCVAHPHSWPWQVSLRTRFGMHFCGGTLISPEWVLTAAHCLEKSPRPSSYKVILGAHQEVNLEPHVQEIEVSRLFLEPTRKDIALLKLSSPAVITDKVIPACLPSPNYVVADRTECFITGWGETQGTFGAGLLKEAQLPVIENKVCNRYEFLNGRVQSTELCAGHLAGGTDSCQGDSGGPLVCFEKDKYILQGVTSWGLGCARPNKPGVYVRVSRFVTWIEGVMRNN
- lung damage [3]: rapid improvement in lung damage

B2: plasmin: as printed for NPL 27; probably the inhaled plasminogen of b10 (protein, UniProt P00747 20-810, looked up)
Plasminogen: EPLDDYVNTQGASLFSVTKKQLGAGSIEECAAKCEEDEEFTCRAFQYHSKEQQCVIMAENRKSSIIIRMRDVVLFEKKVYLSECKTGNGKNYRGTMSKTKNGITCQKWSSTSPHRPRFSPATHPSEGLEENYCRNPDNDPQGPWCYTTDPEKRYDYCDILECEEECMHCSGENYDGKISKTMSGLECQAWDSQSPHAHGYIPSKFPNKNLKKNYCRNPDRELRPWCFTTDPNKRWELCDIPRCTTPPPSSGPTYQCLKGTGENYRGNVAVTVSGHTCQHWSAQTPHTHNRTPENFPCKNLDENYCRNPDGKRAPWCHTTNSQVRWEYCKIPSCDSSPVSTEQLAPTAPPELTPVVQDCYHGDGQSYRGTSSTTTTGKKCQSWSSMTPHRHQKTPENYPNAGLTMNYCRNPDADKGPWCFTTDPSVRWEYCNLKKCSGTEASVVAPPPVVLLPDVETPSEEDCMFGNGKGYRGKRATTVTGTPCQDWAAQEPHRHSIFTPETNPRAGLEKNYCRNPDGDVGGPWCYTTNPRKLYDYCDVPQCAAPSFDCGKPQVEPKKCPGRVVGGCVAHPHSWPWQVSLRTRFGMHFCGGTLISPEWVLTAAHCLEKSPRPSSYKVILGAHQEVNLEPHVQEIEVSRLFLEPTRKDIALLKLSSPAVITDKVIPACLPSPNYVVADRTECFITGWGETQGTFGAGLLKEAQLPVIENKVCNRYEFLNGRVQSTELCAGHLAGGTDSCQGDSGGPLVCFEKDKYILQGVTSWGLGCARPNKPGVYVRVSRFVTWIEGVMRNN
- lung damage [3]: improved
